From patent US11208422B2, “Substituted bridged diazepane derivatives and use thereof as TASK-1 and TASK-3 inhibitors” (Bayer Pharma Aktiengesellschaft, priority 2017, dated 2021)

Assays:
[1] = biological target: recombinant TASK-1 (Homo sapiens (Human), UniProt O14649); test: Inhibition of recombinant TASK-1 in stably transfected CHO cells (KCl-induced depolarization, voltage-sensitive dye, FLIPR); type: cell-based; conditions: depolarization induced by 40 mM potassium chloride, some mean values from multiple determinations
Description: (§1) The compounds of the invention were tested here with administration of 40 mM of potassium chloride in the presence of a voltage-sensitive dye using the method described in detail in the following references [Whiteaker et al., Validation of FLIPR membrane potential dye for high-throughput screening of potassium channel modulators, J. Biomol. Screen. 6 (5), 305-312 (2001); Molecular Devices FLIPR Application Note: Measuring membrane potential using the FLIPR® membrane potential assay kit on Fluorometric Imaging Plate Reader (FLIPR®) systems, http://www.moleculardevices.com/reagents-supplies/assay-kits/ion-channels/flipr-membrane-potential-assay-kits]. The activity of the test substances was determined as their ability to inhibit a depolarization induced in the recombinant cells by 40 mM potassium chloride. The concentration which can block half of this depolarization is referred to as IC50.

[2] = biological target: recombinant TASK-3 (Homo sapiens (Human), UniProt Q9NPC2); test: Inhibition of recombinant TASK-3 in stably transfected CHO cells (KCl-induced depolarization, voltage-sensitive dye, FLIPR); type: cell-based; conditions: depolarization induced by 40 mM potassium chloride, some mean values from multiple determinations
Description: as §1

Sequence of recombinant TASK-1 (O14649 whole entry): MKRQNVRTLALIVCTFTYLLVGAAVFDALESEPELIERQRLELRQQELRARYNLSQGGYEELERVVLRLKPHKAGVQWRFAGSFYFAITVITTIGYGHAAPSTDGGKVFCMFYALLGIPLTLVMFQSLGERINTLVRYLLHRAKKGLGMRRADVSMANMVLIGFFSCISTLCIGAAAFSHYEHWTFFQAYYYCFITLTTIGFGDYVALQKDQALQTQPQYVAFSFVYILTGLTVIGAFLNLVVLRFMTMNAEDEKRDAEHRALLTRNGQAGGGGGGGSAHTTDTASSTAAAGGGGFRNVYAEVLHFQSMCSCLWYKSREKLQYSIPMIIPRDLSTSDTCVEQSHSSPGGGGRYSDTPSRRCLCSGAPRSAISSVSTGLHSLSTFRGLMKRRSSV
Sequence of recombinant TASK-3 (Q9NPC2 whole entry): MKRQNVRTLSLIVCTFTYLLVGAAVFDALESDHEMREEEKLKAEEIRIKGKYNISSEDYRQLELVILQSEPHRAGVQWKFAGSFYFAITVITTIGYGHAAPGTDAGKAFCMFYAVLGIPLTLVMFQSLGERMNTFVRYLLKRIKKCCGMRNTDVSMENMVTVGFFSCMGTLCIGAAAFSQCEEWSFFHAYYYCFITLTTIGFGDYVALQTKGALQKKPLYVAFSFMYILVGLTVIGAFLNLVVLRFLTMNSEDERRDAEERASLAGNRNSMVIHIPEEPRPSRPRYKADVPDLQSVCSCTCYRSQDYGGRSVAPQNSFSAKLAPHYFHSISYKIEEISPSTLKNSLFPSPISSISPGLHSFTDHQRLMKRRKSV

Compound | IC50 [1] | IC50 [2]
O=C(c1ccccc1F)N1C2CCC1CN(Cc1c(-c3ccc(Cl)cc3)nc3ccccn13)CC2 (racemic) [Example 69, [3-{[2-(4-chlorophenyl)imidazo[1,2-a]pyridin-3-yl]methyl}-3,9-diazabicyclo[4.2.1]non-9-yl](2-fluorophenyl)methanone] | 1400 nM | 62 nM
COc1cccc(C(=O)N2C3CCC2CN(Cc2c(-c4ccc(Cl)cc4)nc4ccccn24)CC3)n1 (racemic) [Example 70, [3-{[2-(4-chlorophenyl)imidazo[1,2-a]pyridin-3-yl]methyl}-3,9-diazabicyclo[4.2.1]non-9-yl](6-methoxypyridin-2-yl)methanone] | 305 nM | 4.7 nM
O=C(c1ccccc1F)N1C2CCN(Cc3c(-c4ccc(Cl)cc4)nc4ccccn34)CC1COC2 (racemic) [Example 71, (3-{[2-(4-chlorophenyl)imidazo[1,2-a]pyridin-3-yl]methyl}-8-oxa-3,10-diazabicyclo[4.3.1]dec-10-yl](2-fluorophenyl)methanone] | 740 nM | 31 nM
COc1cccc(C(=O)N2C3CCN(Cc4c(-c5ccc(Cl)cc5)nc5ccccn45)CC2COC3)n1 (racemic) [Example 72, [3-{[2-(4-chlorophenyl)imidazo[1,2-a]pyridin-3-yl]methyl}-8-oxa-3,10-diazabicyclo[4.3.1]dec-10-yl](6-methoxypyridin-2-yl)methanone] | 120 nM | 5.1 nM
Cc1nonc1C(=O)N1C2CCN(Cc3c(-c4ccc(Cl)cc4)nc4ccccn34)CC1COC2 (racemic) [Example 73, [3-{[2-(4-chlorophenyl)imidazo[1,2-a]pyridin-3-yl]methyl}-8-oxa-3,10-diazabicyclo[4.3.1]dec-10-yl](4-methyl-1,2,5-oxadiazol-3-yl)methanone] | 99 nM | 5 nM
O=C(c1ccccc1F)N1C2CCN(Cc3c(-c4ccc(Cl)cc4)nc4ncccn34)CC1COC2 (racemic) [Example 74, [3-{[2-(4-chlorophenyl)imidazo[1,2-a]pyrimidin-3-yl]methyl}-8-oxa-3,10-diazabicyclo[4.3.1]dec-10-yl](2-fluorophenyl)methanone] | 5000 nM | 200 nM
COc1cccc(C(=O)N2C3CCN(Cc4c(-c5ccc(Cl)cc5)nc5ncccn45)CC2COC3)n1 (racemic) [Example 75, [3-{[2-(4-chlorophenyl)imidazo[1,2-a]pyrimidin-3-yl]methyl}-8-oxa-3,10-diazabicyclo[4.3.1]dec-10-yl](6-methoxypyridin-2-yl)methanone] | 2300 nM | 77 nM
Cc1nonc1C(=O)N1C2CCN(Cc3c(-c4ccc(Cl)cc4)nc4ncccn34)CC1COC2 (racemic) [Example 76, [3-{[2-(4-chlorophenyl)imidazo[1,2-a]pyrimidin-3-yl]methyl}-8-oxa-3,10-diazabicyclo[4.3.1]dec-10-yl](4-methyl-1,2,5-oxadiazol-3-yl)methanone] | 1400 nM | 66 nM
Nc1nonc1C(=O)N1C2CCN(Cc3c(-c4ccc(Cl)cc4)nc4ncccn34)CC1COC2 (racemic) [Example 77, (4-amino-1,2,5-oxadiazo1-3-yl)[3-{[2-(4-chlorophenyl)imidazo[1,2-a]pyrimidin-3-yl]methyl}-8-oxa-3,10-diazabicyclo[4.3.1]dec-10-yl]methanone] | 3300 nM | 270 nM
COc1ccc(F)c(C(=O)N2C3CCN(Cc4c(-c5ccc(Cl)cc5)nc5ccccn45)CC2COC3)n1 (racemic) [Example 92, [3-{[2-(4-chlorophenyl)imidazo[1,2-a]pyridin-3-yl]methyl}-8-oxa-3,10-diazabicyclo[4.3.1]dec-10-yl](3-fluoro-6-methoxypyridin-2-yl)methanone] | 85 nM | 2.5 nM
COc1ccc(Cl)c(C(=O)N2C3CCC2CN(Cc2c(-c4ccc(Cl)cc4)nc4ncccn24)CC3)n1 (racemic) [Example 99, (3-chloro-6-methoxypyridin-2-yl)(3-{[2-(4-chlorophenyl)imidazo[1,2-a]pyrimidin-3-yl]methyl}-3,9-diazabicyclo[4.2.1]non-9-yl)methanone] | 290 nM | 34 nM
COc1ccc(Cl)c(C(=O)N2C3CCC2CN(Cc2c(-c4ccc(Cl)cn4)nc4ccccn24)CC3)n1 (racemic) [Example 100, (3-chloro-6-methoxypyridin-2-yl)(3-{[2-(5-chloropyridin-2-yl)imidazo[1,2-a]pyridin-3-yl]methyl}-3,9-diazabicyclo[4.2.1]non-9-yl)methanone] | 370 nM | 42 nM
COc1ccc(F)c(C(=O)N2C3CCC2CN(Cc2c(-c4ccc(Cl)cn4)nc4ccccn24)CC3)n1 (single isomer, unassigned) [Example 16, [3-{[2-(5-Chloropyridin-2-yl)imidazo[1,2-a]pyridin-3-yl]methyl}-3,9-diazabicyclo[4.2.1]non-9-yl](3-fluoro-6-methoxypyridin-2-yl)methanone] | 1700 nM | 65 nM
COc1ccc(F)c(C(=O)N2CCC3CCC2CN3Cc2c(-c3ccc(Cl)cc3)nc3ncccn23)n1 (single isomer, unassigned) [Example 17, [6-{[2-(4-Chlorophenyl)imidazo[1,2-a]pyrimidin-3-yl]methyl}-2,6-diazabicyclo[3.2.2]non-2-yl](3-fluoro-6-methoxypyridin-2-yl)methanone] | 3300 nM | 15 nM
COc1ccc(F)c(C(=O)N2C3CCC2CN(Cc2c(-c4ccc(Cl)cc4)nc4ccccn24)CC3)n1 (single isomer, unassigned) [Example 78, [3-{[2-(4-chlorophenyl)imidazo[1,2-a]pyridin-3-yl]methyl}-3,9-diazabicyclo[4.2.1]non-9-yl](3-fluoro-6-methoxypyridin-2-yl)methanone] | 220 nM | 5 nM
COc1ccc(F)c(C(=O)N2C3CCC2CN(Cc2c(-c4ccc(Cl)cc4)nc4ccccn24)CC3)n1 (single isomer, unassigned) [Example 79, [3-{[2-(4-chlorophenyl)imidazo[1,2-a]pyridin-3-yl]methyl}-3,9-diazabicyclo[4.2.1]non-9-yl](3-fluoro-6-methoxypyridin-2-yl)methanone] | 290 nM | 11 nM
O=C(c1ccccc1F)N1C2CCC1CN(Cc1c(-c3ccc(Cl)cc3)nc3ncccn13)CC2 (single isomer, unassigned) [Example 80] | 4500 nM | 93 nM
COc1ccc(F)c(C(=O)N2C3CCC2CN(Cc2c(-c4ccc(Cl)cc4)nc4ncccn24)CC3)n1 (single isomer, unassigned) [Example 82, [3-{[2-(4-chlorophenyl)imidazo[1,2-a]pyrimidin-3-yl]methyl}-3,9-diazabicyclo[4.2.1]non-9-yl](3-fluoro-6-methoxypyridin-2-yl)methanone] | 30 nM | 1.4 nM
COc1ccc(F)c(C(=O)N2C3CCC2CN(Cc2c(-c4ccc(Cl)cc4)nc4ncccn24)CC3)n1 (single isomer, unassigned) [Example 83, [3-{[2-(4-chlorophenyl)imidazo[1,2-a]pyrimidin-3-yl]methyl}-3,9-diazabicyclo[4.2.1]non-9-yl](3-fluoro-6-methoxypyridin-2-yl)methanone] | 410 nM | 17 nM
COc1cccc(C(=O)N2C3CCC2CN(Cc2c(-c4ccc(Cl)cn4)nc4ccccn24)CC3)n1 (single isomer, unassigned) [Example 84, [3-{[2-(5-chloropyridin-2-yl)imidazo[1,2-a]pyridin-3-yl]methyl}-3,9-diazabicyclo[4.2.1]non-9-yl](6-methoxypyridin-2-yl)methanone] | 350 nM | 25 nM
COc1cccc(C(=O)N2C3CCC2CN(Cc2c(-c4ccc(Cl)cn4)nc4ccccn24)CC3)n1 (single isomer, unassigned) [Example 85, [3-{[2-(5-chloropyridin-2-yl)imidazo[1,2-a]pyridin-3-yl]methyl}-3,9-diazabicyclo[4.2.1]non-9-yl](6-methoxypyridin-2-yl)methanone] | 6300 nM | 370 nM
COc1cccc(C(=O)N2C3CCC2CN(Cc2c(-c4ccc(Cl)cc4)nc4ncccn24)CC3)n1 (single isomer, unassigned) [Example 86, [3-{[2-(4-chlorophenyl)imidazo[1,2-a]pyrimidin-3-yl]methyl}-3,9-diazabicyclo[4.2.1]non-9-yl](6-methoxypyridin-2-yl)methanone] | 340 nM | 28 nM
COc1cccc(C(=O)N2C3CCC2CN(Cc2c(-c4ccc(Cl)cc4)nc4ncccn24)CC3)n1 (single isomer, unassigned) [Example 87, [3-{[2-(4-chlorophenyl)imidazo[1,2-a]pyrimidin-3-yl]methyl}-3,9-diazabicyclo[4.2.1]non-9-yl](6-methoxypyridin-2-yl)methanone] | 1600 nM | 210 nM
O=C(c1ccccc1F)N1C2CCC1CN(Cc1c(-c3ccc(Cl)cc3)nc3ccccn13)CC2 (single isomer, unassigned) [Example 88, [3-{[2-(4-Chlorophenyl)imidazo[1,2-a]pyridin-3-yl]methyl}-3,9-diazabicyclo[4.2.1]non-9-yl](2-fluorophenyl)methanone] | 91 nM | 1.6 nM
O=C(c1ccccc1F)N1C2CCC1CN(Cc1c(-c3ccc(Cl)cc3)nc3ccccn13)CC2 (single isomer, unassigned) [Example 89, [3-{[2-(4-Chlorophenyl)imidazo[1,2-a]pyridin-3-yl]methyl}-3,9-diazabicyclo[4.2.1]non-9-yl](2-fluorophenyl)methanone] | 310 nM | 19 nM
